From patent US20110212100A1, “METHODS FOR MODULATING DEVELOPMENT AND EXPANSION OF IL-17 EXPRESSING CELLS” (priority 2007, published 2011)
“And” between values parts separate entries of the source, which are not always exact repeats. Equal entries are not always repeated.

What was measured:
[1] = tested on: B220+ B cells and CD8+ T cells; test: B cell and CD8+ T cell proliferation and function; assay type: cell-based, mouse
Experimental: The non-specific effects of HF on B and CD8+ T cells were evaluated. B220+ B cells or CD8+ T cells were isolated from the spleen and peripheral lymph nodes of C57B/6 mice. B cell proliferation and IL-6 production was induced by culturing the cells with LPS (0.5 μg/ml) for 4 days. The effects of HF on B cell function was determined by adding titrating amounts of HF (1.25 nM-40 nM) at the time of LPS stimulation. B cell proliferation was monitored by labeling cells with Carboxyfluorescein diacetate, succinimidyl ester (CFSE; 5 μM) prior to LPS stimulation and determining the rate of CFSE dilution after 4 days by flow cytometric analyses. LPS-induced IL-6 production by B cells was determined by intracellular staining on day 4, following PMA+Ionomycin+Brefeldin A re-stimulation as described above. For CD8+ T cell experiments, purified CD8+ T cells were labeled with CFSE as above and the T cells were activated using anti-CD3 (1 μg/ml) and anti-CD28 (1 μg/ml) antibodies. […] CD8+ T cell proliferation was determined by monitoring CFSE dilution on day 3-post activation; CD25 expression was determined by FACS staining on day 2 of culture; differentiation of CD8+ T cells into cytolytic T cells (CTL) was evaluated on day 4 by determining expression of IFNγ and granzyme B following PMA+Ionomycin+Brefeldin A re-stimulation. […]

[2] = tested on: FoxP3 expression in CD4+ CD25− T cells; test: Foxp3 (Treg marker) expression in TGFβ/IL-6 treated T cells; assay type: cell-based, mouse
Experimental: Low doses of halofuginone (HF) were tested to determine the ability of HF to enhance Treg differentiation, while suppressing Th17 differentiation. Nave. CD4+ T cells (CD4+ CD25−) were isolated from the spleen and peripheral lymph nodes of C57B/6 mice. T cells were then activated using anti-CD3 (0.3 μg/ml) and anti-CD28 (0.5 μg/ml) antibodies either in media alone (row 1, 4), TGFβ alone (3 ng/ml—row 2, 5) or TGFβ (3 ng/ml) plus IL-6 (30 ng/ml) (row 3, 6). […] T cells were cultured for 3 days and CD25 and Foxp3 expression (Treg marker genes) was determine by FACS staining and flow cytometric analyses. Simultaneously, T cells were harvested and re-stimulated for 4 hours using phorbol myristic acetate (PMA; 10 nM), Ionomycin (1 μM) and cytokine secretion was prevented using brefeldin A (20 μg/ml). Following stimulation, the production of IL-17 and IFNγ were determined by intracellular staining and analyzed via flow cytometry. […]
FACS analyses and sorting: All cell surface staining was performed in FACS buffer (PBS/2% FCS/0.1% NaN3) and antibodies were incubated with cells on ice for 20-30 minutes. […] All FACS data was acquired on a FACSCalibur flow cytometer (BD Pharmingen) and analyzed using FlowJo software (Treestar, Inc., Ashland, Oreg.). […]

[3] = tested on: Th17 differentiation of CD4+ CD25− T cells; test: Th17 differentiation (IL-17+ IFNγ− cells) of T cells activated with TGFβ plus IL-6; assay type: cell-based; conditions: Mus musculus, T-cell, 96 h; murine CD4+ CD25− T cells, restimulation on day 4-5; ± 0.4 nM; read-out: IC50 of repression of Th17 differentiation (percentage of IL-17+ IFNγ− cells)
[4] = tested on: anti-CD3 activated human peripheral blood T cells; conditions: cited from earlier work
TSK mouse = conditions: 1 μg HF/mouse IP daily (McGaha et al.); cited from earlier work

O=C(CC1NCCCC1O)Cn1cnc2cc(Br)c(Cl)cc2c1=O (racemic) [HF, 7-bromo-6-chloro-3-[3-(3-hydroxy-2-piperidinyl)-2-oxopropyl]-4(3H)-quinazolinone]
dose at which B and CD8+ T cells were profoundly impaired in proliferation and function [1]: greater than 20 nM | effect on B and CD8+ T cell function or proliferation, in words ([1]; doses lower than 10 nM): little or no effect | Foxp3 expression of T cells differentiated in the presence of HF, in words ([2]; 10 nM HF, TGFβ plus IL-6, day 3): enhanced Foxp3 expression | concentration increasing FoxP3 expression concomitantly with inhibiting IL-17 expression ([2]; TGFβ/IL-6 treated T-cells): 2.5 to 10 nM and 2.2 to 10 nM | IC50 [3]: 3.6 nM | NFkB activation and T-cell secretion of cytokines, in words ([4]; 80 nM HF, crude preparation of primary T-cells (Leiba et al.)): broadly suppress NFkB activation and T-cell secretion of cytokines | IC50 ([4]; Lieba et al., read-out: concentration for 50% inhibition of cytokine secretion, NF-kB activation and p38 phosphorylation): 20 to 40 nM | skin thickness in TSK model, in words (TSK mouse): reduced skin thickness of a TSK mouse to that of a normal mouse | toxic effects in TSK model, in words (TSK mouse): no toxic effects
